Reference: patent publication US6696533B1, “Stable N-oxly radical assisted emulsion polymerization under pressure” (BASF Aktiengesellschaft, priority 1997, dated 2004)

From the text: The monomers and polymerization auxiliaries used in the examples below were used without further purification, in other words as acquired.

## CC1(C)CCCC(C)(C)N1O [TEMPO, 2,2,6,6-tetramethyl-1-oxyl-piperidine]
  molal solubility in water: 6.4e-05 mol/kg
